The compounds below were run on FGFR3 enzyme (assay: FGFR Enzymatic Assay (FRET peptide phosphorylation), FGFR3). Details: IC50 ratio showing FGFR3 selectivity; Table 2A, pre-incubated for 4 hours.
Format: biochemical
Method: The inhibitor potency of the exemplified compounds was measured in an enzyme assay that measures peptide phosphorylation using FRET measurements to detect product formation. Inhibitors were serially diluted in DMSO and a volume of 0.5 μL was transferred to the wells of a 384-well plate.
GraphPad prism3 was used to analyze the data.

Row | FGFR1/FGFR3 | FGFR4/FGFR3 | SMILES
1 | >5 |  | COc1cc(OC)c(F)c(N2Cc3cnc(-c4ccc(C#N)nc4)cc3C3(CC3)C2=O)c1F [Example 20, 5-(2′-(2,6-difluoro-3,5-dimethoxyphenyl)-3′-oxo-2′,3′-dihydro-1′H-spiro[cyclopropane-1,4′-[2,7]naphthyridine]-6′-yl)picolinonitrile]
2 | >5 | >5 | COc1cc(OC)c(F)c(N2Cc3cnc(-c4cn(C)nc4C)cc3N(C3CC3)C2=O)c1F [Example 83, 1-cyclopropyl-3-(2,6-difluoro-3,5-dimethoxyphenyl)-7-(1,3-dimethyl-1H-pyrazol-4-yl)-3,4-dihydropyrido[4,3-d]pyrimidin-2(1H)-one]
3 | >5 | >10 | COc1cc(OC)c(F)c(N2Cc3cnc(-c4cn(C)nc4C)cc3N(Cc3ccccn3)C2=O)c1F [Example 94, 3-(2,6-difluoro-3,5-dimethoxyphenyl)-7-(1,3-dimethyl-1H-pyrazol-4-yl)-1-(pyridin-2-ylmethyl)-3,4-dihydropyrido[4,3-d]pyrimidin-2(1H)-one]
4 | >5 | >1 | COc1cc(OC)c(F)c(N2Cc3cnc(-c4cn(Cc5cccnc5)nc4C)cc3C3(CC3)C2=O)c1F [Example 155, 2′-(2,6-difluoro-3,5-dimethoxyphenyl)-6′-(3-methyl-1-(pyridin-3-ylmethyl)-1H-pyrazol-4-yl)-1′H-spiro[cyclopropane-1,4′-[2,7]naphthyridin]-3′(2′H)-one]
5 | >5 | >5 | COc1cc(OC)c(F)c(N2Cc3cnc(-c4cn(C)nc4C)cc3N(Cc3cnn(CC#N)c3)C2=O)c1F [Example 125, 2-(4-((3-(2,6-difluoro-3,5-dimethoxyphenyl)-7-(1,3-dimethyl-1H-pyrazol-4-yl)-2-oxo-3,4-dihydropyrido[4,3-d]pyrimidin-1(2H)-yl)methyl)-1H-pyrazol-1-yl)acetonitrile]
6 | >1 | >5 | COc1cc(OC)c(F)c(N2Cc3cnc(-c4cn(C)nc4C)cc3N(CC3CC3)C2=O)c1F [Example 29, 1-(cyclopropylmethyl)-3-(2,6-difluoro-3,5-dimethoxyphenyl)-7-(1,3-dimethyl-1H-pyrazol-4-yl)-3,4-dihydropyrido[4,3-d]pyrimidin-2(1H)-one]
7 | >3 | >3 | COc1cc(OC)c(F)c(N2Cc3cnc(-c4cn(CCC5CCNCC5)nc4C)cc3C3(CC3)C2=O)c1F [Example 165, 2′-(2,6-difluoro-3,5-dimethoxyphenyl)-6′-(3-methyl-1-(2-(piperidin-4-yl)ethyl)-1H-pyrazol-4-yl)-1′H-spiro[cyclopropane-1,4′-[2,7]naphthyridin]-3′(2′H)-one]
8 | >5 | >10 | COc1cc(OC)c(F)c(N2Cc3cnc(-c4ccc(C5(C#N)CCC5)nc4)cc3N(c3ccncn3)C2=O)c1F [Example 135, 1-(5-(3-(2,6-difluoro-3,5-dimethoxyphenyl)-2-oxo-1-(pyrimidin-4-yl)-1,2,3,4-tetrahydropyrido[4,3-d]pyrimidin-7-yl)pyridin-2-yl)cyclobutanecarbonitrile]
9 | >3 | >5 | COc1cc(OC)c(F)c(N2Cc3cnc(-c4cn(C)nc4C)cc3N(CCc3cnn(C)c3)C2=O)c1F [Example 114, 3-(2,6-difluoro-3,5-dimethoxyphenyl)-7-(1,3-dimethyl-1H-pyrazol-4-yl)-1-(2-(1-methyl-1H-pyrazol-4-yl)ethyl)-3,4-dihydropyrido[4,3-d]pyrimidin-2(1H)-one]
10 | >10 | >10 | CCN1C(=O)N(c2c(F)c(OC)cc(OC)c2F)Cc2cnc(-c3ccc(C4(C#N)CCC4)nc3)cc21 [Example 27, 1-(5-(3-(2,6-difluoro-3,5-dimethoxyphenyl)-1-ethyl-2-oxo-1,2,3,4-tetrahydropyrido[4,3-d]pyrimidin-7-yl)pyridin-2-yl)cyclobutanecarbonitrile]
11 | >5 | >5 | COc1cc(OC)c(F)c(N2Cc3cnc(-c4cn(C)nc4C)cc3N(Cc3cc(C(C)C)on3)C2=O)c1F [Example 93, 3-(2,6-difluoro-3,5-dimethoxyphenyl)-7-(1,3-dimethyl-1H-pyrazol-4-yl)-1-((5-isopropylisoxazol-3-yl)methyl)-3,4-dihydropyrido[4,3-d]pyrimidin-2(1H)-one]
12 | >3 | >10 | COc1cccc(N2C(=O)N(c3c(F)c(OC)cc(OC)c3F)Cc3cnc(-c4cn(C)nc4C)cc32)c1 [Example 109, 3-(2,6-difluoro-3,5-dimethoxyphenyl)-7-(1,3-dimethyl-1H-pyrazol-4-yl)-1-(3-methoxyphenyl)-3,4-dihydropyrido[4,3-d]pyrimidin-2(1H)-one]
13 | >5 | >10 | COc1cc(OC)c(F)c(N2Cc3cnc(-c4cn(C)nc4C)cc3N(Cc3ccc(F)cc3)C2=O)c1F [Example 34, 3-(2,6-difluoro-3,5-dimethoxyphenyl)-7-(1,3-dimethyl-1H-pyrazol-4-yl)-1-(4-fluorobenzyl)-3,4-dihydropyrido[4,3-d]pyrimidin-2(1H)-one]
14 | >5 | >5 | COc1cc(OC)c(F)c(N2Cc3cnc(-c4cnn(C)c4)cc3C3(CC3)C2=O)c1F [Example 186, 2′-(2,6-difluoro-3,5-dimethoxyphenyl)-6′-(1-methyl-1H-pyrazol-4-yl)-1′,2′-dihydro-3′H-spiro[cyclopropane-1,4′-[2,7]naphthyridin]-3′-one]
15 | >5 | >10 | COc1cc(OC)c(F)c(N2Cc3cnc(-c4cn(C)nc4C)cc3N(c3cn[nH]c3)C2=O)c1F [Example 129, 3-(2,6-difluoro-3,5-dimethoxyphenyl)-7-(1,3-dimethyl-1H-pyrazol-4-yl)-1-(1H-pyrazol-4-yl)-3,4-dihydropyrido[4,3-d]pyrimidin-2(1H)-one]
16 | >5 | >3 | COc1cc(OC)c(F)c(N2Cc3cnc(-c4cnn(CCN5CCOCC5)c4)cc3C3(CC3)C2=O)c1F [Example 157, 2′-(2,6-difluoro-3,5-dimethoxyphenyl)-6′-(1-(2-morpholinoethyl)-1H-pyrazol-4-yl)-1′H-spiro[cyclopropane-1,4′-[2,7]naphthyridin]-3′(2′H)-one]
17 | >10 | >5 | CCN1C(=O)N(c2c(F)c(OC)cc(OC)c2F)Cc2cnc(-c3ccc(C(=O)NC4CC4)nc3)cc21 [Example 176, N-cyclopropyl-5-(3-(2,6-difluoro-3,5-dimethoxyphenyl)-1-ethyl-2-oxo-1,2,3,4-tetrahydropyrido[4,3-d]pyrimidin-7-yl)picolinamide]
18 | >10 | >3 | COc1cc(OC)c(F)c(N2Cc3cnc(-c4cnn(CCC5CCN(S(C)(=O)=O)CC5)c4)cc3C3(CC3)C2=O)c1F [Example 148, 2′-(2,6-difluoro-3,5-dimethoxyphenyl)-6′-(1-(2-(1-(methylsulfonyl)piperidin-4-yl)ethyl)-1H-pyrazol-4-yl)-1′H-spiro[cyclopropane-1,4′-[2,7]naphthyridin]-3′(2′H)-one]
19 | >5 | >10 | COc1cc(OC)c(F)c(N2Cc3cnc(-c4cn(C)nc4C)cc3N(Cc3cnccn3)C2=O)c1F [Example 85, 3-(2,6-difluoro-3,5-dimethoxyphenyl)-7-(1,3-dimethyl-1H-pyrazol-4-yl)-1-(pyrazin-2-ylmethyl)-3,4-dihydropyrido[4,3-d]pyrimidin-2(1H)-one]
20 | >5 |  | CNC(=O)c1ccc(-c2cc3c(cn2)CN(c2c(F)c(OC)cc(OC)c2F)C(=O)C32CC2)cc1 [Example 19, 4-(2′-(2,6-difluoro-3,5-dimethoxyphenyl)-3′-oxo-2′,3′-dihydro-1′H-spiro[cyclopropane-1,4′-[2,7]naphthyridine]-6′-yl)-N-methylbenzamide]
21 | >5 | >5 | COc1cc(OC)c(F)c(N2Cc3cnc(-c4cn(C)nc4C)cc3N(c3ccn(C)n3)C2=O)c1F [Example 100, 3-(2,6-difluoro-3,5-dimethoxyphenyl)-7-(1,3-dimethyl-1H-pyrazol-4-yl)-1-(1-methyl-1H-pyrazol-3-yl)-3,4-dihydropyrido[4,3-d]pyrimidin-2(1H)-one]

Row | SMILES | FGFR1/FGFR3 | FGFR4/FGFR3
22 | COc1cc(OC)c(F)c(N2Cc3cnc(-c4cn(C)nc4C)cc3N(C[C@H]3CCOC3)C2=O)c1F [Example 108, (R)-3-(2,6-difluoro-3,5-dimethoxyphenyl)-7-(1,3-dimethyl-1H-pyrazol-4-yl)-1-((tetrahydrofuran-3-yl)methyl)-3,4-dihydropyrido[4,3-d]pyrimidin-2(1H)-one] | >3 | >3
23 | COc1cc(OC)c(F)c(N2Cc3cnc(-c4cn(C5CCN(CC#N)C5)nc4C)cc3C3(CC3)C2=O)c1F (stereo not drawn) [Example 154, 2-(3-(4-(2′-(2,6-difluoro-3,5-dimethoxyphenyl)-3′-oxo-2′,3′-dihydro-1′H-spiro[cyclopropane-1,4′-[2,7]naphthyridine]-6′-yl)-3-methyl-1H-pyrazol-1-yl)pyrrolidin-1-yl)acetonitrile] | >5 | >3
24 | COc1cc(OC)c(F)c(N2Cc3cnc(-c4cn(C)nc4C)cc3N(c3cnn(C4CC4)c3)C2=O)c1F [Example 130, 1-(1-cyclopropyl-1H-pyrazol-4-yl)-3-(2,6-difluoro-3,5-dimethoxyphenyl)-7-(1,3-dimethyl-1H-pyrazol-4-yl)-3,4-dihydropyrido[4,3-d]pyrimidin-2(1H)-one] | >5 | >5
25 | COc1cc(OC)c(F)c(N2Cc3cnc(-c4cn(C)nc4C)cc3N(c3cnc(C)cn3)C2=O)c1F [Example 107, 3-(2,6-difluoro-3,5-dimethoxyphenyl)-7-(1,3-dimethyl-1H-pyrazol-4-yl)-1-(5-methylpyrazin-2-yl)-3,4-dihydropyrido[4,3-d]pyrimidin-2(1H)-one] | >3 | >10
